{"source": "patent US20140199261A1", "about": "“METHOD OF REDUCING MULTI-DRUG RESISTANCE USING INOSITOL TRIPYROPHOSPHATE” (Universite de Strasbourg, priority 2009, published 2014)", "key": {"[1]": {"test_system": "Human MiaPaca in Nude Mouse", "assay": "Median survival, human MiaPaca tumor in nude mouse", "type": "in vivo", "source_text": "(§1) Median survival time of animals with ductal pancreatic adenocarcinoma treated with OXY111A and/or gemcitabine was followed and summarized in Table 1 below: […]"}, "[2]": {"test_system": "subcutaneous melanoma tumor", "assay": "Oxylite pO2 measurement in subcutaneous melanoma tumor", "type": "in vivo, mouse", "experimental": "(§2) B16F10LucGFP cells were grown as subcutaneous tumors, after injecting 100 μl of a plug constituted by 10^5 cells in 25% Matrigel™ (50% in OptiMEM). Matrigel was from BD Biosciences and OptiMEM from Invitrogen. Mice were euthanized and tumors and lungs excised 25 days after inoculation. […] Treatment was initiated 7, 9 or 11 days post melanoma cell inoculation.\nThe oxylite 2000E PO2 system (Oxford Optronics) measures pO2 by determining the O2-dependant fluorescence lifetime of ruthenium chloride which is immobilized at the tip of 230-μm diameter fiber-optic probe. The lifetime of the fluorescent pulse is inversely proportional to the oxygen tension in the tip. The mouse was anesthetized with intraperitoneal injection of xylazine/ketamin before the oxylite probe tip was installed inside the tumor and oxygen pressure recorded as described.\nTo confirm that ITPP-RBCs counteract hypoxia in vivo, a comparison of the values of the oxygen tension inside the melanoma tumors implanted subcutaneously above the left leg, in ITPP-treated and untreated mice was performed. Oxygen pressure (pO2) was computed by determining the O2-dependent fluorescence lifetime of ruthenium chloride on the tip of a fibre-optic probe. The lifetime of the fluorescent pulse is inversely proportional to the oxygen tension in the tip of the probe. While the tumors in non-treated animals, were strongly hypoxic with an oxygen pressure value below 2 mmHg (FIG. 1), in tumors of ITPP-treated mice pO2 reached the range of 40 mmHg (FIG. 1A). This pO2 increase occurred as soon as 30 minutes after intra-peritoneal injection of ITPP (FIG. 1B, C) and was maintained at a high level, up to 40 mmHg, as shown 24 hours after injection (FIG. 1A) for at least 48 hours."}, "[3]": {"test_system": "Rat tumor in Nude Mouse (ductal pancreatic adenocarcinoma)", "assay": "Median survival, rat pancreatic tumor in nude mouse", "type": "in vivo", "source_text": "as §1"}, "[4]": {"test_system": "B16F10LucGFP subcutaneous tumors", "assay": "Subcutaneous melanoma model (lung metastases, vessel normalization, drug efflux pump)", "type": "in vivo, mouse", "experimental": "as §2\nTumor tissues were embedded in Tissue-Tek (Sakura), tissue freezing medium and snap frozen in liquid nitrogen. Cryosections were fixed and stained using a rat monoclonal IgG2a antibodies against mouse CD31 (PECAM-I, platelet/endothelial cell adhesion molecule) from eBiosciences, rabbit IgG anti-SMA (smooth muscle actin) antibody (AbCAM), or mouse IgG2a anti-P-Glycoprotein (C219) (Calbiochem), diluted 1:200 in FCS 5% in PBS. Goat IgG-FITC-labeled anti-rat immunoglobulin, goat IgG-FITC-labelled anti-rabbit immunoglobulin or goat IgG-FITC-labelled anti-mouse immunoglobulin (diluted 1:200 in PBS) was used as secondary antibodies respectively. To detect cell nuclei, sections were incubated with bis-Benzimide H 33258 (Sigma-Aldrich) 1:1000 in PBS. Specimens were mounted in Vectashield (Vector) and fluorescent microscopy detection was performed on a Zeiss 200M inverted fluorescent microscope. Tumor necrosis was analysed after Hematoxylin eosine staining of tumor sections.\nMRI assays were performed with a 9.4 T horizontal magnet for small animals (94/21 USR Bruker Biospec), equipped with a 950 mT/m gradient set. Mice were placed in a linear homogeneous coil (inner diameter: 35 mm). Animals were maintained under gaseous (50% N2O: 0.7 l/min—50% O2: 0.7l/min—Isoflurane 1.5%) anesthesia, temperature kept constant at 36° C. and breathing rate was monitored during the acquisitions using air balloon placed on the mouse chest to adjust the anesthetic output. Measurement of tumor vascularization was performed by MR angiography using the Fast Low Angle Shot (FLASH) sequence both in the axial and coronal planes. The FLASH pulse sequence was adapted to the study of the evolution of the angiogenesis of the tumor. This technique allows the 3D structure of the vascular tree of the tumor on the same animal to be followed overtime.\nStructural changes of microcirculation in tumors were assessed by MRA (Magnetic Resonance Angiography) adaptation of Magnetic Resonance Imaging (MRI) to follow the 3D structure of the vascular tree of the tumor."}, "B16 tumor": {"test_system": "B16 tumor", "assay": "Immune cell infiltration into B16 tumor", "type": "in vivo", "experimental": "OXY111A was injected intraperitoneally on days 7, 8, 14, 15, 21, 22, 29 and 30. Analysis of the B16 tumor was performed on day 31.\n(a) to (c) untreated B16 tumor; (d) to (f) B16 tumor treated with ITPP. Green arrows indicate the infiltrating NK cells; red arrows indicate the vessel walls.\nB16 tumor cells were labeled with B16F10 DAPI; NK cells were labeled by anti-CD49bFITCl; and vessel endothelial cells were labeled by antiCD31TRITC. (a) untreated B 16 tumor; (b) and (c) B 16 tumor treated with ITPP."}, "[5]": {"test_system": "B16F10LucGFP murine melanoma cells", "assay": "Experimental metastasis assay (intravenous B16F10LucGFP melanoma cells), lung markers", "type": "in vivo, mouse", "experimental": "After intravenous injection of B16F10LucGFP murine melanoma cells (10^5 cells in 0.1 ml saline) in the tail vein, mice (eight-week-old female C57BL/6 from Janvier) were treated by 1.5 g/kg ITPP IP injected every 5 days (10 mice per treatment group). Treatment was initiated at day 5 after tumor cells inoculation. 19 or 27 days later, mice were euthanized and lungs collected separately. Macroscopic lung foci were counted and luciferase was determined by chemoluminescence assay (Promega) in order to quantify the amount of melanoma cells in tissues. All animal study procedures and the use of animals were approved by the Comite d'Ethique pour l'expérimentation animale, Campus CNRS d'Orléans, France.\nLungs were homogenized in lysis buffer (Active motif). After centrifugations, clear supernatant was collected. Total protein amount was determined by BCA protein assay kit (Thermo Scientific). HIF-1α, VEGF, Tie-2 and HO-1 in lung lysates were quantified using colorimetric sandwich ELISA according to the manufacturer's instructions. The HIF-1α, VEGF and Tie-2 ELISA kits were from R&D. The HO-1 ELISA kit was from Takara.\nThe Taqman polymerase chain reaction primer sequences for LOX were 5′-[…]-3′ (SEQ ID NO: 1) and 5′-[…]-3′ (SEQ ID NO: 2). For β-actin (internal control), the primer sequences were 5′-[…] ATCC-3′ (SEQ ID NO: 3) and 5′-[…]-3′ (SEQ ID NO: 4). The amplified cDNAs bands were quantified with ImageQuant software (Becton and Dickinson). LOX mRNA levels were normalized relatively to β-actin mRNA.\nTo validate ITPP as an anti-metastatic agent, the “artificial” model of lung metastasis was used by injecting intravenously melanoma cells in mice. The B16F10LucGFP cell line was used, which is the melanoma B16F10 line transduced by GFP and luciferase reporter genes allowing to track and quantify the melanoma cells by analysis of luciferase activity in tissues."}, "[6]": {"test_system": "Human Panc-1 pancreatic tumor xenograft", "assay": "Median survival, human Panc-1 pancreatic tumor xenograft in nude mouse", "type": "in vivo", "experimental": "In the ITPP treatment group, mice with tumor xenograft were treated with ITPP (2 mg/Kg) weekly during the period of day 14 to day 49. In the gemcitabine treatment group, mice with tumor xenograft were treated with gemcitabine (100 mg/Kg) on days 16, 18 and 20. Animals in the control group were not treated.\nIn the combination treatment group, mice with tumor xenograft were treated with ITPP (2 mg/Kg) in combination with gemcitabine (25 mg/Kg or 50 mg/Kg) weekly during the period of day 14 to day 49. In the\ngemcitabine treatment group, mice with tumor xenograft were treated with gemcitabine (100 mg/Kg) on days 16, 18 and 20. Animals in the control group were not treated.\nIn the xenograft tumor model, mice in the combination treatment group received administration of ITPP (2 mg/Kg) in combination with gemcitabine (25 mg/Kg or 50 mg/Kg) weekly during the period of day 14 to day 49. Mice in the gemcitabine treatment group received administration of gemcitabine (100 mg/Kg) on days 16, 18 and 20. Mice in the control group were not treated.\nas §1"}, "[7]": {"test_system": "Syngeneic rat tumor in rat (ductal pancreatic adenocarcinoma)", "assay": "Median survival, syngeneic rat pancreatic tumor in rat", "type": "in vivo", "experimental": "(§3) In the ITPP treatment group, rats with pancreatic tumor were treated with ITPP (1.5 mg/Kg) weekly during the period of day 14 to day 49. In the gemcitabine treatment group, rats with pancreatic tumor were treated with gemcitabine (100 mg/Kg) on days 16, 18 and 20. Animals in the control group were not treated.\nas §3, with “the combination” for “the ITPP”, “(1.5 mg/Kg) in combination with gemcitabine (25 mg/Kg or 50” for “(1.5”\nIn the rat pancreatic tumor model, rats in the combination treatment group received ITPP (1.5 mg/Kg) in combination with gemcitabine (25 mg/Kg or 50 mg/Kg) weekly during the period of day 14 to day 49. Rats in the gemcitabine treatment group received administration of gemcitabine (100 mg/Kg) alone on days 16, 18 and 20. Rats in the control group were not treated.\nas §1"}, "endothelial cells": {"test_system": "endothelial cells", "assay": "Endothelial cell sensitivity to chemotherapeutic drugs", "type": "cell-based, mouse", "conditions": "drug by itself, FIG. 4C", "experimental": "Cell viability was evaluated by Alamar blue test (Biosource) as described by the manufacturer."}}, "data": [{"smiles": "O=P1([O-])OC2C3OP(=O)([O-])OP(=O)([O-])OC3C3OP(=O)([O-])OP(=O)([O-])OC3C2OP(=O)([O-])O1.[Na+].[Na+].[Na+].[Na+].[Na+].[Na+]", "note": "(stereo not drawn) [ITPP, hexasodium myo-inositol trispyrophosphate]", "values": [{"measurement": "Median survival time", "setting": "[1]; OXY111A alone, 2 mg/kg", "value": 155, "unit": "days"}, {"measurement": "pO2 level maintained in tumor", "setting": "[2]; 24 hours after injection", "value": "up to 40 mmHg"}, {"measurement": "Duration of high tumor pO2", "setting": "[2]; after injection", "value": "at least 48 hours"}, {"measurement": "Time to pO2 increase in tumor", "setting": "[2]; after intra-peritoneal injection of ITPP", "value": 30, "unit": "minutes"}, {"measurement": "pO2 in muscle of non tumoral leg", "setting": "[2]; parallel measurement in same animal", "value": "no change or any effect on pO2 was detected"}, {"measurement": "Oxygen pressure (pO2) in tumor", "setting": "[2]; tumors of ITPP-treated mice, FIG. 1A", "value": "~40", "unit": "mmHg"}, {"measurement": "Median survival time", "setting": "[3]; OXY111A alone, 2 mg/kg", "value": 107, "unit": "days"}, {"measurement": "Tumor vasculature (MRA)", "setting": "[4]; ITPP on day 9 and 14, repeated on days 18 and 19", "value": "less dense and remarkably normalized"}, {"measurement": "Tumor size", "setting": "[4]; ITPP on days 9, 14, 18, 19", "value": "remarkable reduction of the tumor size"}, {"measurement": "P-glycoprotein drug efflux pump in tumor", "setting": "[4]; implanted primary tumors, immunostaining", "value": "down-regulates"}, {"measurement": "Lung metastases", "setting": "[4]; initiation of ITPP on day 9 or 11", "value": "less effective"}, {"measurement": "Lung metastases", "setting": "[4]; initiation on day 9 or 11, chronic administrations", "value": "enhancement of pulmonary metastases"}, {"measurement": "Lung metastases", "setting": "[4]; short-term treatment (3 ITPP injections, 5 days intervals) started on day 7", "value": "reduced significantly the lung metastases"}, {"measurement": "Infiltration of CD49b NK cells into tumor", "setting": "B16 tumor; in vivo", "value": "significantly enhanced"}, {"measurement": "Presence of CD31 EC cells in tumor", "setting": "B16 tumor; in vivo", "value": "significantly enhanced"}, {"measurement": "Infiltration of CD68 (M2 type) macrophages into tumor", "setting": "B16 tumor; intraperitoneal injections on days 7, 8, 14, 15, 21, 22, 29 and 30", "value": "significantly enhanced"}, {"measurement": "Tie-2 expression in lungs", "setting": "[5]; ELISA on lung lysates", "value": "re-induced"}, {"measurement": "VEGF level in lungs", "setting": "[5]; ELISA on lung lysates", "value": "decreased to control levels"}, {"measurement": "HIF-1α levels in lungs", "setting": "[5]; ELISA on lung lysates, vs untreated melanoma bearing mice", "value": "decreased dramatically"}, {"measurement": "HO-1 expression in lungs", "setting": "[5]; ELISA, compared to non-treated mice", "value": "significantly reduced"}, {"measurement": "Metastatic nodules in lung", "setting": "[5]; ITPP treatment started from day 5, until day 27", "value": "very significantly reduced"}, {"measurement": "Lysyl-oxidase (LOX) mRNA", "setting": "[5]; semi-quantitative PCR", "value": "beneficial effect"}, {"measurement": "Median survival time", "setting": "[6]; OXY111A alone, 2 mg/kg", "value": 155, "unit": "days"}, {"measurement": "Median survival time", "setting": "[7]; OXY111A alone, 1.5 mg/kg", "value": 102, "unit": "days"}]}, {"smiles": "Nc1ccn([C@@H]2O[C@H](CO)[C@@H](O)C2(F)F)c(=O)n1", "note": "[Gemcitabine, gemcitabine, reference compound]", "values": [{"measurement": "Median survival time", "setting": "[1]; Gemcitabine alone, 100 mg/kg", "value": 140, "unit": "days"}, {"measurement": "Median survival time", "setting": "[3]; Gemcitabine alone, 100 mg/kg", "value": 89, "unit": "days"}, {"measurement": "Median survival time", "setting": "[6]; Gemcitabine alone, 100 mg/kg", "value": 141, "unit": "days"}, {"measurement": "Median survival time", "setting": "[7]; Gemcitabine alone, 100 mg/kg", "value": 58, "unit": "days"}]}, {"smiles": "N.N.[Cl][Pt][Cl]", "note": "[cisplatin, cis-dichlorodiamine platinum]", "values": [{"measurement": "Growth of endothelial cells", "setting": "endothelial cells", "value": "inhibited the growth of the endothelial cells"}]}, {"smiles": "CC(=O)O[C@H]1C(=O)[C@@]2(C)[C@H]([C@H](OC(=O)c3ccccc3)[C@]3(O)C[C@H](OC(=O)[C@H](O)[C@@H](NC(=O)c4ccccc4)c4ccccc4)C(C)=C1C3(C)C)[C@]1(OC(C)=O)CO[C@@H]1C[C@@H]2O", "note": "[Paclitaxel, paclitaxel]", "values": [{"measurement": "Growth of endothelial cells", "setting": "endothelial cells", "value": "inhibited the growth of the endothelial cells"}]}]}
